Experimental data as given in US6500431B1, “Inhibitors of angiogenesis and tumor growth” (University of Southern California, priority 1998, dated 2002).
No end group written: not given here.

Tests used:
Assay type in all cases: cell-based
KS Y-1 cells = assay: KS Y-1 cell proliferation assay (MTT); conditions: for KS Cell Proliferation, % of Control: 7,500 KS Y-1 cells/well; for KS Cell Proliferation, % of Control / Cell Proliferation Activity (% of control), KSY-1: 5 days, MTT; for Cell Proliferation Activity (% of control), KSY-1: concentration not printed
Method: (§1) To determine if Saposin B polypeptides had anti-angiogenic activity, a series of overlapping polypeptides were synthesized and tested in the KS Y-1 cell proliferation assay. The overlapping polypeptides are SEQ ID NOS:13 though 42. Cell Proliferation assays in either KS cells or fibroblast. Cells were plated in 48 well plates at equal numbers in appropriate culture medium. Cells were treated with the test compounds at various concentrations on day one, and on day 3. MTT was done on day 5. KS cells were used to represent the activated endothelial cells, while fibroblast cells represent the control cells. The results are remarkable for the lack of toxicity to the fibroblast relative to the activated endothelial cells/KS cells.

T1 cells = assay: Fibroblast proliferation assay (MTT); conditions: concentration not given, 5 days
Method: as §1, with “MTT was done on day 5.” left out

[1] = system: endothelial cells (HUVEC); assay: Growth inhibition of endothelial cells; conditions: Saposin C: highest concentration tested 50 μg/mL
Method: FIG. 1D: Activity of n-terminus decapeptide (DVCQDCIQMV; SEQ ID NO 21).
FIG. 1E: Activity of N-terminus pentapeptide (DVCQC; SEQ ID NO: 28).
(§2) By SDS-PAGE, the bacterial product was smaller than the eukaryotic protein. Because prokaryotically expressed proteins are not glycosylated, the difference in molecular weights probably represents the presence of carbohydrate in the eukaryotic protein. Recombinant proteins were then tested in KS, endothelial and control cell lines. Activity was found only in KS cell lines and endothelial cells.

KS cell lines = assay: Activity of recombinant Prosaposin chains on growth of KS cell lines; conditions: Saposin C: highest concentration tested 50 μg/mL
Description: In order to determine whether recombinant Saposin B has anti-angiogenic activity, the coding region of each of the Prosaposin chains was amplified from fibroblast cell lines and cloned into both bacterial (pGEX-KG) and eukaryotic (pcDNA 3.1His A) expression vectors.
The PCR products were digested with the respective restriction enzymes and the restriction products were inserted into the pGEX-KG vector for bacterial expression. pGEX-KG vector comprises a glutathione S transferase (GST)-tag at the […] of the insertion site so that a GST-fusion protein is expressed. The GST-tag is used to aid in purification of the recombinant protein. After elution from a glutathione-Sepharose 4B column, the GST-tagged proteins were incubated with thrombin (4 μg/ml) for 4 hr at room temperature (22-25° C.) in 50 mM Tris, pH 8.3, 3 mM CaCl2, 150 mM NaCl to cleave GST from the fusion protein. Free GST was removed from the preparation by passing the digested fusion protein through the glutathione-Sepharose 4B column.
as §2

[2] = first of two KSY-1 value columns

For IQMVTDIQTAVRTNSTF [SEQ ID NO:14], the “KS Cell Proliferation, % of Control” value (KS Y-1 cells; 10 μg/ml) was 89.3 % of Control, the “KS Cell Proliferation, % of Control” value (KS Y-1 cells; 100 μg/mL) was 60.7 % of Control and the “KS Cell Proliferation, % of Control” value (KS Y-1 cells; 500 μg/mL) was 28.6 % of Control.

For QDCIQMV [SEQ ID NO:31, QDCIQMV], the IC50 (KS Y-1 cells) was 16.6 µM, the “Cell Proliferation Activity (% of control), KSY-1” value (KS Y-1 cells; [2]) was 74 % of control and the “Cell Proliferation Activity (% of control), T1” value (T1 cells) was 80 % of control. For the same molecule, the “Cell Proliferation Activity (% of control), T1” value (T1 cells; first of two T1 value columns) was 87 % of control.

With QMMMHMQPKEICALVG [SEQ ID NO:18] the “KS Cell Proliferation, % of Control” value (KS Y-1 cells; 10 μg/ml) was 88.9 % of Control, the “KS Cell Proliferation, % of Control” value (KS Y-1 cells; 100 μg/mL) was 86.4 % of Control and the “KS Cell Proliferation, % of Control” value (KS Y-1 cells; 500 μg/mL) was 58.0 % of Control.

Molecule “QMVTDIQTQVRTNSTF [SEQ ID NO:43, QMVTDIQTQVRTNSTF]” has an IC50 (KS Y-1 cells) of 14 µM.

QPKDNGDVCQDCIQV [SEQ ID NO:13] was tested, and the “KS Cell Proliferation, % of Control” value (KS Y-1 cells; 1 μg/mL) was 51.8 % of Control, the “KS Cell Proliferation, % of Control” value (KS Y-1 cells; 10 μg/ml) was 17.9 % of Control and the “KS Cell Proliferation, % of Control” value (KS Y-1 cells; 50 μg/mL) was 1.8 % of Control. For the same molecule, the “KS Cell Proliferation, % of Control” value (KS Y-1 cells; 100 μg/mL) was 1.8 % of Control and the “KS Cell Proliferation, % of Control” value (KS Y-1 cells; 500 μg/mL) was 1.8 % of Control.

STFVQALVEHVKEECDR [SEQ ID NO:15] was tested, and the “KS Cell Proliferation, % of Control” value (KS Y-1 cells; 10 μg/ml) was 101.8 % of Control, the “KS Cell Proliferation, % of Control” value (KS Y-1 cells; 100 μg/mL) was 60.7 % of Control and the “KS Cell Proliferation, % of Control” value (KS Y-1 cells; 500 μg/mL) was 28.6 % of Control.

For VCQDCIQMV [SEQ ID NO:29], the “Cell Proliferation Activity (% of control), KSY-1” value (KS Y-1 cells; [2]) was 65 % of control, the “Cell Proliferation Activity (% of control), KSY-1” value (KS Y-1 cells; second of two KSY-1 value columns) was 33 % of control and the “Cell Proliferation Activity (% of control), T1” value (T1 cells) was 86 % of control. The “Cell Proliferation Activity (% of control), T1” value (T1 cells; first of two T1 value columns) was 95 % of control.

In the case of “YISQYSEIAIQMMMHMQP [SEQ ID NO:17, YISQYSEIAIQMMMHMQP]”, the IC50 (KS Y-1 cells) is reported as 20 µM, the “KS Cell Proliferation, % of Control” value (KS Y-1 cells; 10 μg/ml) is reported as 96.3 % of Control and the “KS Cell Proliferation, % of Control” value (KS Y-1 cells; 100 μg/mL) is reported as 86.4 % of Control. For the same molecule, the “KS Cell Proliferation, % of Control” value (KS Y-1 cells; 500 μg/mL) was 46.9 % of Control.

B1: Saposin C: sphingolipid-binding glycoprotein derived from Prosaposin; recombinant (protein, UniProt P07602 311-390, looked up)
Saposin-C: SDVYCEVCEFLVKEVTKLIDNNKTEKEILDAFDKMCSKLPKSLSEECQEVVDTYGSSILSILLEEVSPELVCSMLHLCSG
modifications: Saposin-C
notes: recombinant
B1 was tested, and the “activity against endothelial cells” value [1] was “no activity” and the “activity against KS cell lines” value (KS cell lines) was “no activity”.

B2: Saposin A: sphingolipid-binding glycoprotein derived from Prosaposin; recombinant (protein, UniProt P07602 60-142, looked up)
Saposin-A: SLPCDICKDVVTAAGDMLKDNATEEEILVYLEKTCDWLPKPNMSASCKEIVDSYLPVILDIIKGEMSRPGEVCSALNLCESLQ
modifications: Saposin-A
notes: recombinant
B2 was tested, and the “activity against endothelial cells” value [1] was “no activity” and the “activity against KS cell lines” value (KS cell lines) was “no activity”.

B3: Saposin D: sphingolipid-binding glycoprotein derived from Prosaposin; recombinant (protein, UniProt P07602 405-486, looked up)
Saposin-D: DGGFCEVCKKLVGYLDRNLEKNSTKQEILAALEKGCSFLPDPYQKQCDQFVAEYEPVLIEILVEVMDPSFVCLKIGACPSAH
modifications: Saposin-D
notes: recombinant
B3 was tested, and the “activity against endothelial cells” value [1] was “no activity” and the “activity against KS cell lines” value (KS cell lines) was “no activity”.

B4: Prosaposin: 70 kD glycoprotein, precursor of Saposin A, B, C and D; naturally occurring full-length (protein, listed as Homo sapiens)
chain: MYALFLLASLLGAALAGPVLGLKECTRGSAVWCQNVKTASDCGAVKHCLQTVWNKPTVKSLPCDICKDVVTAAGDMLKDNATEEEILVYLEKTCDWLPKPNMSASCKEIVDSYLPVILDIIKGEMSRPGEVCSALNLCESLQKHLAELNHQKQLESNKIPELDMTEVVAPFMANIPLLLYPQDGPRSKPQPKDNGDVCQDCIQMVTDIQTAVRTNSTFVQALVEHVKEECDRLGPGMADICKNYISQYSEIAIQMMMHMQPKEICALVGFCDEVKEMPMQTLVPAKVASKNVIPALELVEPIKKHEVPAKSDVYCEVCEFLVKEVTKLIDNNKTEKEILDAFDKMCSKLPKSLSEECQEVVDTYGSSILSILLEEVSPELVCSMLHLCSGTRLPALTVHVTQPKDGGFCEVCKKLVGYLDRNLEKNSTKQEILAALEKGCSFLPDPYQKQCDQFVAEYEPVLIEILVEVMDPSFVCLKIGACPSAHKPLLGTEKCIWGPSYWCQNTETAAQCNAVEHCKRHVWN
modifications: prosaposin
notes: 70 kD glycoprotein, precursor of Saposin A, B, C and D; naturally occurring full-length
For B4, the “activity against endothelial cells” value [1] was “no activity” and the “activity against KS cell lines” value (KS cell lines) was “no activity”.
